Patent US5510356A, “Bisquinolines and processes for their production and use to treat malaria” (priority 1991, dated 1996)

Key:
P. falciparum = assay: In vitro activity against P. falciparum (both clones, D-6 and W-2); format: cell-based, Plasmodium falciparum
Protocol: (§1) In vitro activity against P. falciparum was determined using a modification of the semiautomated microdilution technique of Desjardins et al. (1979) and Milhous et al. (1985). Two P. falciparum malaria parasite clones, designated as Sierra Leone (D-6) and Indochina (W-2), are used in susceptibility testing. The former is resistant to mefloquine, and the latter to CQ, pyrimethamine, sulfadoxine, and quinine. Test compounds are dissolved in dimethylsulfoxide, and solutions serially diluted with culture media. Erythrocytes with 0.25 to 0.5% parasitemia are added to each well of a 96-well microdilution plate to give a final hematocrit of 1.5%. […] Results are reported as […] (ng/mL) values. For a complete description of this assay, see Milhous et al. (1985) and Lin et al. (1987).

[1] = Solubility in DMSO (noted in NMR work); conditions: 13C NMR spectra not obtainable
[2] = system: P. falciparum clone W-2 (Indochina); format: cell-based, Plasmodium falciparum
Protocol: as §1

[3] = system: P. falciparum clone D-6 (Sierra Leone); format: cell-based, Plasmodium falciparum; conditions: D-6 clone (resistant to mefloquine)
Protocol: as §1

[4] = system: P. berghei (strain KBG 173); assay: In vivo activity against P. berghei in mice, single subcutaneous dose 3 days after infection; set-up: species or system Plasmodium berghei; mice; conditions: for P. berghei T-C: single dose 3 days post infection, n = 5
Protocol: In vivo activity against P. berghei was obtained against a drug-sensitive strain of P. berghei (strain KBG 173) (Osdene et al., 1967). Each test compound is administered subcutaneous to five male mice per dilution in a single subcutaneous dose 3 days after infection. Results are expressed in T-C values which indicate the mean survival time of the treated mice beyond that of the control animals; untreated mice survive on average 6.2 days. Compounds are classified as active (A) when the mean survival time of the treated mice is twice that of the controls (>6.2 days), and curative (C) when one or more test animals live 60 days post-infection. Deaths from 0-2 days post-treatment are attributed to toxicity (T).

With Clc1ccc2c(NCCNc3ccnc4cc(Cl)ccc34)ccnc2c1 [Compound 1, N^1 N^2, -Bis(7-chloroquinolin-4-y1)ethane-1,2-diamine] the “in vitro activity against P. falciparum (in words)” value (P. falciparum) was “approximately an order of magnitude less potent in vitro”, the “Resistance Index” value (P. falciparum; IC50 (W2)/IC50 (D6) ratio) was 1.6 and the “antimalarial activity (in words)” value (P. falciparum; general statement, refers to Table I) was “antimalarial activity”. For the same compound, the “solubility in DMSO” value [1] was “low solubilities in DMSO”, the “P. falciparum IC50 (nM) W-2” value [2] was 27.0 nM and the “P. falciparum IC50 (nM) D-6” value [3] was 17.3 nM. For the same compound, the “in vivo activity against P. berghei (in words)” value [4] was “without activity in vivo”, the “P. berghei T-C” value ([4]; 40 mg/kg s.c.) was 0.0 days and the “P. berghei T-C” value ([4]; 160 mg/kg s.c.) was 0.4 days. For the same compound, the “P. berghei T-C” value ([4]; 640 mg/kg s.c.) was 1.4 days.
